The results in this text go back to patent US9809625B2, “Immunomodulators” (BRISTOL-MYERS SQUIBB COMPANY, priority 2015, dated 2017).

Bridge positions count the residues as written; N and C are the ends. Square brackets hold non-standard residues; d marks the D form. Peptide text beside a SMILES is read from it. * marks the point of attachment. ξ: configuration not given here. Piperazinyl(4-Ph) = c1ccc(N2CCN(*)CC2)cc1; Hyp = O=C(O)[C@@H]1C[C@@H](O)CN1; Piperazinyl(4-Me) = CN1CCN(*)CC1; ξW = NC(Cc1c[nH]c2ccccc12)C(=O)O; NMeNle = CCCC[C@H](NC)C(=O)O; X5 = Clc1ccc(C2CCN(*)CC2)cc1; Morpholide = C1CN(*)CCO1; NMeA = CN[C@@H](C)C(=O)O; Piperidide = C1CCN(*)CC1; Dap = NC[C@H](N)C(=O)O; X11 = OC1CCC(N*)CC1; X2 = c1cn(CCCN*)cn1; X9 = OCCN(CCO)CCCN*; NHCH2CH2OH = OCCN*; OtBu = CC(C)(C)O*; βAla = NCCC(=O)O; Sar = CNCC(=O)O

T1 sequence (Q9NZQ7 with tags, fused parts or gaps): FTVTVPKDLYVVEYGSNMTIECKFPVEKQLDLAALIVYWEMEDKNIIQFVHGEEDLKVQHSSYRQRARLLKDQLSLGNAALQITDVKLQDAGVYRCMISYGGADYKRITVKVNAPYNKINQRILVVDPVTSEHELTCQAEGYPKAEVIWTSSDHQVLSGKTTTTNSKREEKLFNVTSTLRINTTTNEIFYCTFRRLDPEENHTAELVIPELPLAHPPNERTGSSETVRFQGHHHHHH

This assay concerns the target T1, PD-1-Ig binding to PD-L1-TVMV-His (PD-L1-His) (Homo sapiens, UniProt Q9NZQ7).
T1 construct: hPDL1(19-239)-TVMV-His; TVMV protease cleavage site (C); made in house; host or cells: HEK293T
Kind of assay: PD-1/PD-L1 Homogenous Time-Resolved Fluorescence (HTRF) binding assay. Conditions: PD-1-Ig (20 nM)/PD-L1-His (10 nM), range classes. The text has this:
Methods for Testing the Ability of Macrocyclic Peptides to Compete for the Binding of PD-1 to PD-L1 Using Homogenous Time-Resolved Fluorescence (HTRF) Binding Assays
The ability of the macrocyclic peptides of the present disclosure to bind to PD-L1 was investigated using a PD-1/PD-L1 Homogenous Time-Resolved Fluorescence (HTRF) binding assay.
Homogenous Time-Resolved Fluorescence (HTRF) Assays of Binding of Soluble PD-1 to Soluble PD-L1. Soluble PD-1 and soluble PD-L1 refers to proteins with carboxyl-end truncations that remove the transmembrane-spanning regions and are fused to heterologous sequences, specifically the Fc portion of the human immunoglobuling G sequence (Ig) or the hexahistidine epitope tag (His). All binding studies were performed in an HTRF assay buffer consisting of dPBS supplemented with 0.1% (w/v) bovine serum albumin and 0.05% (v/v) Tween-20. For the PD-1-Ig/PD-L1-His binding assay, inhibitors were pre-incubated with PD-L1-His (10 nM final) for 15 m in 4 μl of assay buffer, followed by addition of PD-1-Ig (20 nM final) in 1 μl of assay buffer and further incubation for 15 m. PD-L1 fusion proteins from either human, cynomologous macaques, mouse, or other species were used. HTRF detection was achieved using europium crypate-labeled anti-Ig monoclonal antibody (1 nM final) and allophycocyanin (APC) labeled anti-His monoclonal antibody (20 nM final). Antibodies were diluted in HTRF detection buffer and 5 μl was dispensed on top of binding reaction. The reaction was allowed to equilibrate for 30 minutes and signal (665 nm/620 nm ratio) was obtained using an EnVision fluorometer. Additional binding assays were established between PD-1-Ig/PD-L2-His (20 and 5 nM, respectively), CD80-His/PD-L1-Ig (100 and 10 nM, respectively) and CD80-His/CTLA4-Ig (10 and 5 nM, respectively). Binding/competition studies between biotinylated Compound No. 71 and human PD-L1-His were performed as follows. Macrocyclic peptide inhibitors were pre-incubated with PD-L1-His (10 nM final) for 60 minutes in 4 μl of assay buffer followed by addition of biotinylated Compound No. 71 (0.5 nM final) in 1 μl of assay buffer. Binding was allowed to equilibrate for 30 minutes followed by addition of europium crypated labeled Streptavidin (2.5 pM final) and APC-labeled anti-His (20 nM final) in 5 μl of HTRF buffer. The reaction was allowed to equilibrate for 30 m and signal (665 nm/620 nm ratio) was obtained using an EnVision fluorometer.
Recombinant Proteins. Carboxyl-truncated human PD-1 (amino acids 25-167) with a C-terminal human Ig epitope tag [hPD-1 (25-167)-3S-IG] and human PD-L1 (amino acids 18-239) with a C-terminal His epitope tag [hPD-L1(19-239)-tobacco vein mottling virus protease cleavage site (TVMV)-His] were expressed in HEK293T cells and purified sequentially by recombinant Protein A affinity chromatography and size exclusion chromatography. Human PD-L2-His (Sino Biologicals), CD80-His (Sino Biologicals), CTLA4-Ig (RnD Systems) were all obtained through commercial sources.
With `CCCC[C@H]1C(=O)N(C)[C@@H](CCCC)C(=O)N[C@@H](CC(C)C)C(=O)N[C@H](C(=O)N(C)CC(N)=O)CSCC(=O)N[C@@H](Cc2ccc(O)cc2)C(=O)N(C)[C@@H](C)C(=O)N[C@@H](CC(N)=O)C(=O)N2CCC[C@H]2C(=O)N[C@@H](CN)C(=O)N[C@@H](CC(C)C)C(=O)N2C[C@H](O)C[C@H]2C(=O)N[C@@H](Cc2c[nH]c3ccccc23)C(=O)NCC(=O)N[C@@H](Cc2c[nH]c3ccccc23)C(=O)N1C` [Example 13119] ({CH2CO}-Y[NMeA]NP[Dap]L[Hyp]WGW[NMeNle][NMeNle]LC[Sar]-NH2; thioether N-14), the IC50 (commonly the concentration at which inhibition is half-maximal) was 10 to 60 nM.

In turn, `CCCC[C@H]1C(=O)N(C)[C@@H](CCCC)C(=O)N[C@@H](CC(C)C)C(=O)N[C@H](C(=O)NCC(=O)NC2CCC(O)CC2)CSCC(=O)N[C@@H](Cc2ccc(O)cc2)C(=O)N(C)[C@@H](C)C(=O)N[C@@H](CC(N)=O)C(=O)N2CCC[C@H]2C(=O)N[C@@H](CN)C(=O)N[C@@H](CC(C)C)C(=O)N2C[C@H](O)C[C@H]2C(=O)N[C@@H](Cc2c[nH]c3ccccc23)C(=O)NCC(=O)NC(Cc2c[nH]c3ccccc23)C(=O)N1C` (stereo partly drawn) [Example 13106] ({CH2CO}-Y[NMeA]NP[Dap]L[Hyp]WG[ξW][NMeNle][NMeNle]LCG-X11; thioether N-14) came in with an IC50 of 10 to 60 nM.

`CCCC[C@H]1C(=O)N(C)[C@@H](CCCC)C(=O)N[C@@H](CC(C)C)C(=O)N[C@H](C(=O)NCC(=O)N2CCN(C)CC2)CSCC(=O)N[C@@H](Cc2ccc(O)cc2)C(=O)N(C)[C@@H](C)C(=O)N[C@@H](CC(N)=O)C(=O)N2CCC[C@H]2C(=O)N[C@@H](CN)C(=O)N[C@@H](CC(C)C)C(=O)N2C[C@H](O)C[C@H]2C(=O)N[C@@H](Cc2c[nH]c3ccccc23)C(=O)NCC(=O)N[C@@H](Cc2c[nH]c3ccccc23)C(=O)N1C` [Example 13089] ({CH2CO}-Y[NMeA]NP[Dap]L[Hyp]WGW[NMeNle][NMeNle]LCG-{Piperazinyl(4-Me)}; thioether N-14): the IC50 was in the range of 10 to 60 nM.

`CCCC[C@H]1C(=O)N(C)[C@@H](CCCC)C(=O)N[C@@H](CC(C)C)C(=O)N[C@H](C(=O)NCC(=O)NCCCn2ccnc2)CSCC(=O)N[C@@H](Cc2ccc(O)cc2)C(=O)N(C)[C@@H](C)C(=O)N[C@@H](CC(N)=O)C(=O)N2CCC[C@H]2C(=O)N[C@@H](CN)C(=O)N[C@@H](CC(C)C)C(=O)N2C[C@H](O)C[C@H]2C(=O)N[C@@H](Cc2c[nH]c3ccccc23)C(=O)NCC(=O)NC(Cc2c[nH]c3ccccc23)C(=O)N1C` (stereo partly drawn) [Example 13099] ({CH2CO}-Y[NMeA]NP[Dap]L[Hyp]WG[ξW][NMeNle][NMeNle]LCG-X2; thioether N-14) had an IC50 of 10 to 60 nM.

In turn, `CCCC[C@H]1C(=O)N(C)[C@@H](CCCC)C(=O)N[C@@H](CC(C)C)C(=O)N[C@H](C(=O)NCC(=O)NCCO)CSCC(=O)N[C@@H](Cc2ccc(O)cc2)C(=O)N(C)[C@@H](C)C(=O)N[C@@H](CC(N)=O)C(=O)N2CCC[C@H]2C(=O)N[C@@H](CN)C(=O)N[C@@H](CC(C)C)C(=O)N2C[C@H](O)C[C@H]2C(=O)N[C@@H](Cc2c[nH]c3ccccc23)C(=O)NCC(=O)NC(Cc2c[nH]c3ccccc23)C(=O)N1C` (stereo partly drawn) [Example 13095] ({CH2CO}-Y[NMeA]NP[Dap]L[Hyp]WG[ξW][NMeNle][NMeNle]LCG-NHCH2CH2OH; thioether N-14) gave a 50% inhibitory concentration (IC50) of 10 to 60 nM.

Take `CCCC[C@H]1C(=O)N(C)[C@@H](CCCC)C(=O)N[C@@H](CC(C)C)C(=O)N[C@H](C(=O)NCC(=O)N2CCCCC2)CSCC(=O)N[C@@H](Cc2ccc(O)cc2)C(=O)N(C)[C@@H](C)C(=O)N[C@@H](CC(N)=O)C(=O)N2CCC[C@H]2C(=O)N[C@@H](CN)C(=O)N[C@@H](CC(C)C)C(=O)N2C[C@H](O)C[C@H]2C(=O)N[C@@H](Cc2c[nH]c3ccccc23)C(=O)NCC(=O)N[C@@H](Cc2c[nH]c3ccccc23)C(=O)N1C` [Example 13086] ({CH2CO}-Y[NMeA]NP[Dap]L[Hyp]WGW[NMeNle][NMeNle]LCG-Piperidide; thioether N-14): the IC50 was in the range of 4 to 9.9 nM.

The compound `CCCC[C@H]1C(=O)N(C)[C@@H](CCCC)C(=O)N[C@@H](CC(C)C)C(=O)N[C@H](C(=O)NCC(=O)N2CCN(c3ccccc3)CC2)CSCC(=O)N[C@@H](Cc2ccc(O)cc2)C(=O)N(C)[C@@H](C)C(=O)N[C@@H](CC(N)=O)C(=O)N2CCC[C@H]2C(=O)N[C@@H](CN)C(=O)N[C@@H](CC(C)C)C(=O)N2C[C@H](O)C[C@H]2C(=O)N[C@@H](Cc2c[nH]c3ccccc23)C(=O)NCC(=O)NC(Cc2c[nH]c3ccccc23)C(=O)N1C` (stereo partly drawn) [Example 13117] ({CH2CO}-Y[NMeA]NP[Dap]L[Hyp]WG[ξW][NMeNle][NMeNle]LCG-{Piperazinyl(4-Ph)}; thioether N-14) showed an IC50 of 4 to 9.9 nM.

On to `CCCC[C@H]1C(=O)N(C)[C@@H](CCCC)C(=O)N[C@@H](CC(C)C)C(=O)N[C@H](C(=O)NCC(=O)N2CCC(c3ccc(Cl)cc3)CC2)CSCC(=O)N[C@@H](Cc2ccc(O)cc2)C(=O)N(C)[C@@H](C)C(=O)N[C@@H](CC(N)=O)C(=O)N2CCC[C@H]2C(=O)N[C@@H](CN)C(=O)N[C@@H](CC(C)C)C(=O)N2C[C@H](O)C[C@H]2C(=O)N[C@@H](Cc2c[nH]c3ccccc23)C(=O)NCC(=O)NC(Cc2c[nH]c3ccccc23)C(=O)N1C` (stereo partly drawn) [Example 13115] ({CH2CO}-Y[NMeA]NP[Dap]L[Hyp]WG[ξW][NMeNle][NMeNle]LCG-X5; thioether N-14), for which the IC50 was in the range of 10 to 60 nM.

For `CCCC[C@H]1C(=O)N(C)[C@@H](CCCC)C(=O)N[C@@H](CC(C)C)C(=O)N[C@H](C(=O)NCC(=O)N2CCOCC2)CSCC(=O)N[C@@H](Cc2ccc(O)cc2)C(=O)N(C)[C@@H](C)C(=O)N[C@@H](CC(N)=O)C(=O)N2CCC[C@H]2C(=O)N[C@@H](CN)C(=O)N[C@@H](CC(C)C)C(=O)N2C[C@H](O)C[C@H]2C(=O)N[C@@H](Cc2c[nH]c3ccccc23)C(=O)NCC(=O)N[C@@H](Cc2c[nH]c3ccccc23)C(=O)N1C` [Example 13087] ({CH2CO}-Y[NMeA]NP[Dap]L[Hyp]WGW[NMeNle][NMeNle]LCG-Morpholide; thioether N-14), the IC50 was in the range of 10 to 60 nM.

On to `CCCC[C@H]1C(=O)N(C)[C@@H](CCCC)C(=O)N[C@@H](CC(C)C)C(=O)N[C@H](C(=O)NCC(=O)NCCC(=O)OC(C)(C)C)CSCC(=O)N[C@@H](Cc2ccc(O)cc2)C(=O)N(C)[C@@H](C)C(=O)N[C@@H](CC(N)=O)C(=O)N2CCC[C@H]2C(=O)N[C@@H](CN)C(=O)N[C@@H](CC(C)C)C(=O)N2C[C@H](O)C[C@H]2C(=O)N[C@@H](Cc2c[nH]c3ccccc23)C(=O)NCC(=O)NC(Cc2c[nH]c3ccccc23)C(=O)N1C` (stereo partly drawn) [Example 13109] ({CH2CO}-Y[NMeA]NP[Dap]L[Hyp]WG[ξW][NMeNle][NMeNle]LCG[βAla]-OtBu; thioether N-14), for which the IC50 is 10 to 60 nM.

Compound `CCCC[C@H]1C(=O)N(C)[C@@H](CCCC)C(=O)N[C@@H](CC(C)C)C(=O)N[C@H](C(=O)NCC(=O)NCCCN(CCO)CCO)CSCC(=O)N[C@@H](Cc2ccc(O)cc2)C(=O)N(C)[C@@H](C)C(=O)N[C@@H](CC(N)=O)C(=O)N2CCC[C@H]2C(=O)N[C@@H](CN)C(=O)N[C@@H](CC(C)C)C(=O)N2C[C@H](O)C[C@H]2C(=O)N[C@@H](Cc2c[nH]c3ccccc23)C(=O)NCC(=O)N[C@@H](Cc2c[nH]c3ccccc23)C(=O)N1C` [Example 13107] ({CH2CO}-Y[NMeA]NP[Dap]L[Hyp]WGW[NMeNle][NMeNle]LCG-X9; thioether N-14) showed an IC50 of 10 to 60 nM.

In turn, `CCCC[C@H]1C(=O)N(C)[C@@H](CCCC)C(=O)N[C@@H](CC(C)C)C(=O)N[C@H](C(=O)NCC(=O)NCCC(N)=O)CSCC(=O)N[C@@H](Cc2ccc(O)cc2)C(=O)N(C)[C@@H](C)C(=O)N[C@@H](CC(N)=O)C(=O)N2CCC[C@H]2C(=O)N[C@@H](CN)C(=O)N[C@@H](CC(C)C)C(=O)N2C[C@H](O)C[C@H]2C(=O)N[C@@H](Cc2c[nH]c3ccccc23)C(=O)NCC(=O)NC(Cc2c[nH]c3ccccc23)C(=O)N1C` (stereo partly drawn) [Example 13110] ({CH2CO}-Y[NMeA]NP[Dap]L[Hyp]WG[ξW][NMeNle][NMeNle]LCG[βAla]-NH2; thioether N-14) came in with an IC50 of 4 to 9.9 nM.
